The values that follow are results of earlier work, collected in patent publication US11452734B2, “Method of treating and preventing secondary hyperparathyroidism” (OPKO IRELAND GLOBAL HOLDINGS, LTD., priority 2006, dated 2022).

In the series the target is T1, Vitamin D receptors (VDR) (Homo sapiens, UniProt P11473).
T1 sequence (P11473 1-427): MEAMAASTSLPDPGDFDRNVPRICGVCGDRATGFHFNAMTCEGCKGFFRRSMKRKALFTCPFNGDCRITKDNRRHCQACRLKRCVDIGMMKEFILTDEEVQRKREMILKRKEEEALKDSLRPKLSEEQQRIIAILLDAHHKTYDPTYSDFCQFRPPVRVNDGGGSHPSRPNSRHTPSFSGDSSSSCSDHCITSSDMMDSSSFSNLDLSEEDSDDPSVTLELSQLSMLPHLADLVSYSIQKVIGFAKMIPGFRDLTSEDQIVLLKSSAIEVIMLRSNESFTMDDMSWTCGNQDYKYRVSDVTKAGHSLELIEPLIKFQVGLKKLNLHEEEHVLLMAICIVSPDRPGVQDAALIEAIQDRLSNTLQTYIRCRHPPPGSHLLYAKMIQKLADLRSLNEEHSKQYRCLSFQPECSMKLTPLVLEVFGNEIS

As to `C=C1/C(=C\C=C2/CCC[C@]3(C)[C@@H]([C@H](C)/C=C/[C@@](C)(O)C(C)C)CC[C@@H]23)C[C@@H](O)C[C@@H]1O` [1α,24(S)-dihydroxyvitamin D2], the “affinities for the VDR, compared among the three Vitamin D hormones” value was “nearly identical”.

Take `C=C1/C(=C\C=C2/CCC[C@]3(C)[C@@H]([C@H](C)/C=C/[C@H](C)C(C)(C)O)CC[C@@H]23)C[C@@H](O)C[C@@H]1O` [1α,25-dihydroxyvitamin D2]: the “affinities for the VDR, compared among the three Vitamin D hormones” value was “nearly identical”.
